Read-outs that look alike come from different tables or passages of the source.
What was measured:
Format in all cases: biochemical
[1] = target: JAK3 (Homo sapiens (Human), UniProt P52333); assay: JAK3 Inhibition Assay (Example D, Omnia kinase fluorescence peptide substrate assay)
Text: (§1) The assays described in Examples A, B, C and D for the determination of Tyk2, JAK1, JAK2 and JAK3 kinase activity, respectively, utilized the Omnia® Kinase fluorescence peptide substrate-based technology (Invitrogen). The specific components of the assay mixture are described in Examples A, B, C and D. In these assays, Mg^2+ is chelated upon phosphorylation of the Omnia peptide by the kinase to form a bridge between the chelation-enhanced fluorophore Sox and the phosphate, resulting in an increase in fluorescence emission at 485 nm when excited at […]. The reactions were therefore read at excitation 360 nm and emission was measured at 485 nm every 50 seconds for 45 minutes using a PerkinElmer EnVision Multilabel Plate Reader.
(§2) The final buffer conditions for Tyk2, JAK1, JAK2, and JAK3 assays were as follows: 25 mM HEPES, pH 7.4, 10 mM MgCl2, 0.01% Triton X-100 and 1 mM DTT.
(§3) Two-μL aliquots of these were transferred to a fresh plate for a ten-fold intermediate dilution with assay buffer. Five-μL aliquots of the diluted compounds were then transferred to 20-μL of assay mixtures described in Examples A, B, C and D for a final concentration of DMSO of 2%. […] For each plate, percent of control (POC) values were calculated for each well according to the following equation: […]
(§4) IC50's were estimated from the POC's using a standard 4-parameter logistic model:
(§5) The IC50 is defined as the concentration of inhibitor at which the POC equals 50 for the fitted curve.
(§6) Compounds of Formula I were screened for their ability to inhibit JAK3 using the general enzyme inhibition assay method, in which the assay mixture contained 1 mM ATP, 10 μM Omnia® Y7 peptide (Catalog # IVGN KNZ3071C, Invitrogen Corporation, Carlsbad, Calif.) and 2 nM JAK3 in a total volume of 25 μL. JAK3 was purchased from Invitrogen Corporation, Carlsbad, Calif. (catalog # IVGN PV4080).

[2] = target: Human Tyk2 kinase domain (Homo sapiens (Human), UniProt P29597); assay: Tyk2 Inhibition Assay (Example A, Omnia kinase fluorescence peptide substrate assay); settings: TYK2 Enzyme IC50 1 mM ATP, averaged IC50 ranges
Text: as §1, §2, §3, §4, §5
Compounds of Formula I were screened for their ability to inhibit Tyk2 using the general enzyme inhibition assay method, in which the assay mixture contained 1 mM ATP, 8 μM Omnia Y12 peptide (Catalog # IVGN KPZ3121C; Invitrogen Corporation, Carlsbad, Calif.) and 1 nM Tyk2 in a total volume of 25 μL. Human Tyk2 kinase domain, comprising amino acids 886 to 1187 with 10 additional histidine residues (histidine tag) on the carboxy terminus, was expressed and purified from bacculovirus in-house at Array BioPharma Inc. (Boulder, Colo.). The histidine tag was cleaved after purification using standard conditions.

[3] = target: JAK1 (Homo sapiens (Human), UniProt P23458); assay: JAK1 Inhibition Assay (Example B, Omnia kinase fluorescence peptide substrate assay)
Text: as §1, §2, §3, §4, §5
Compounds of Formula I were screened for their ability to inhibit JAK1 using the general enzyme inhibition assay method, in which the assay mixture contained 1 mM ATP, 8 μM Omnia® Y12 peptide (Catalog # IVGN KPZ3121C; Invitrogen Corporation, Carlsbad, Calif.) and 12.5 nM JAK1 in a total volume of 25 μL. JAK1 was purchased from Invitrogen Corporation, Carlsbad, Calif. (catalog # IVGN PV4775).

[4] = target: JAK2 (Homo sapiens (Human), UniProt O60674); assay: JAK2 Inhibition Assay (Example C, Omnia kinase fluorescence peptide substrate assay); settings: JAK2 Enzyme IC50 1 mM ATP, averaged IC50 ranges
Text: as §1, §2, §3, §4, §5
as §6, with “inhibit JAK2” for “inhibit JAK3”, “and 4” for “and 2”, “nM JAK2” for “nM JAK3”, “μL. JAK2” for “μL. JAK3”, “IVGN PV4288).” for “IVGN PV4080).”

[5] = JAK1 Enzyme IC50 1 mM ATP, 1 mM ATP, averaged IC50 ranges

Chain of JAK2 (O60674 whole entry): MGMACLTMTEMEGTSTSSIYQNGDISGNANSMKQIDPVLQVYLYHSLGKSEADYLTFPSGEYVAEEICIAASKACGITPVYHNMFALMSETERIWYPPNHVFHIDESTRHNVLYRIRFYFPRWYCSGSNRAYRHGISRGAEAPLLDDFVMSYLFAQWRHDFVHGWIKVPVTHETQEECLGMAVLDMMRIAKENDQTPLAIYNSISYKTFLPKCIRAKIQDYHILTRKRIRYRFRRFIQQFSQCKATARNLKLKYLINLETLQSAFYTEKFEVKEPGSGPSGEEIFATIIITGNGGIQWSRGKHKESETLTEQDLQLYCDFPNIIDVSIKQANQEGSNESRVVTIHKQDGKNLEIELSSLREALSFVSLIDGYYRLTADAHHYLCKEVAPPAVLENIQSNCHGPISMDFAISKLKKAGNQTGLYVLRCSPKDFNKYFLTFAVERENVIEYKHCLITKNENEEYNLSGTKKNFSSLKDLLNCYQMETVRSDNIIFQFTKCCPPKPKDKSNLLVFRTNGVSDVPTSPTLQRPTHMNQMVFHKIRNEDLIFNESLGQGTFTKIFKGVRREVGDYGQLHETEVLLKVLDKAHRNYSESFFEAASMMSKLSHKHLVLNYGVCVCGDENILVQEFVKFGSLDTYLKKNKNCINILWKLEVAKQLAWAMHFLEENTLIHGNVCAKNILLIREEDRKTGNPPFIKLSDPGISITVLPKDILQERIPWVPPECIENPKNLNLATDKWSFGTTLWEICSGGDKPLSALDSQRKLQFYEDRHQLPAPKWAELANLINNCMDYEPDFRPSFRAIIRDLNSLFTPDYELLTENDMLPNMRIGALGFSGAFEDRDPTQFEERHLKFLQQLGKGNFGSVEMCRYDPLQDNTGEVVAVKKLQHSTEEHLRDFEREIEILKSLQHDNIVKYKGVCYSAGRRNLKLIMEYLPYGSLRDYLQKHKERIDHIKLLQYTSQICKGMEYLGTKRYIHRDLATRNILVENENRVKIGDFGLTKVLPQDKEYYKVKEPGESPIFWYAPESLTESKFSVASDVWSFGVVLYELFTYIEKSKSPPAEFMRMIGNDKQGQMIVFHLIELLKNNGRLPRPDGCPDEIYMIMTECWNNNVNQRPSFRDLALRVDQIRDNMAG
Chain of JAK3 (P52333 whole entry): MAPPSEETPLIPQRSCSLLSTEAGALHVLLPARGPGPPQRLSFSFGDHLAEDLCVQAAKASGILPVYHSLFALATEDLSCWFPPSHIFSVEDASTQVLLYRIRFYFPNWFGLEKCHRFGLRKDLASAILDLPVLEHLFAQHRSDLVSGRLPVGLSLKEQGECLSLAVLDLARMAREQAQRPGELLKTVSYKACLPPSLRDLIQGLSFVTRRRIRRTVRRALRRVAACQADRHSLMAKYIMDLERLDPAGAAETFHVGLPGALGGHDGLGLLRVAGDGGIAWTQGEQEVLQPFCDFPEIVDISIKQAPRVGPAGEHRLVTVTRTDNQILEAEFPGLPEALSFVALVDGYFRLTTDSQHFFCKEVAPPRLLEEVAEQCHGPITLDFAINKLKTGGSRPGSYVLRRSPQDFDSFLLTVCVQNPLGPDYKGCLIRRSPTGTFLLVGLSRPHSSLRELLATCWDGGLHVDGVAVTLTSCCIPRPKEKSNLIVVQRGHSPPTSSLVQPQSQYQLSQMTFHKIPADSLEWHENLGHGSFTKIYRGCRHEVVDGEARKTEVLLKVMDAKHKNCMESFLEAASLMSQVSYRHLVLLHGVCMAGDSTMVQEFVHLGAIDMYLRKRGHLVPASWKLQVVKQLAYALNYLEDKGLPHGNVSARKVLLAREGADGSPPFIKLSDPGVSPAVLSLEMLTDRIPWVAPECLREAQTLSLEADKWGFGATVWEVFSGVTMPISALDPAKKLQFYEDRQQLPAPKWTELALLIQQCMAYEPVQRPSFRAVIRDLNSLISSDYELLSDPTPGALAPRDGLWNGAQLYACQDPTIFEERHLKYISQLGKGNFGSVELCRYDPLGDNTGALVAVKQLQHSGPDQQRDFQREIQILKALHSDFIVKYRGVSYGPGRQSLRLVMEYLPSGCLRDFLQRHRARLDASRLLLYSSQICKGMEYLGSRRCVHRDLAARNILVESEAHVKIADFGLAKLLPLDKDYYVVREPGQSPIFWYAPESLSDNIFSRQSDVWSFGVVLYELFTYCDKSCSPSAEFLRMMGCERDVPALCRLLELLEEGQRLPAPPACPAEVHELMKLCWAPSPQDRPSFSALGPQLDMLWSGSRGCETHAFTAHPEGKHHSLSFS
Chain of JAK1 (P23458 whole entry): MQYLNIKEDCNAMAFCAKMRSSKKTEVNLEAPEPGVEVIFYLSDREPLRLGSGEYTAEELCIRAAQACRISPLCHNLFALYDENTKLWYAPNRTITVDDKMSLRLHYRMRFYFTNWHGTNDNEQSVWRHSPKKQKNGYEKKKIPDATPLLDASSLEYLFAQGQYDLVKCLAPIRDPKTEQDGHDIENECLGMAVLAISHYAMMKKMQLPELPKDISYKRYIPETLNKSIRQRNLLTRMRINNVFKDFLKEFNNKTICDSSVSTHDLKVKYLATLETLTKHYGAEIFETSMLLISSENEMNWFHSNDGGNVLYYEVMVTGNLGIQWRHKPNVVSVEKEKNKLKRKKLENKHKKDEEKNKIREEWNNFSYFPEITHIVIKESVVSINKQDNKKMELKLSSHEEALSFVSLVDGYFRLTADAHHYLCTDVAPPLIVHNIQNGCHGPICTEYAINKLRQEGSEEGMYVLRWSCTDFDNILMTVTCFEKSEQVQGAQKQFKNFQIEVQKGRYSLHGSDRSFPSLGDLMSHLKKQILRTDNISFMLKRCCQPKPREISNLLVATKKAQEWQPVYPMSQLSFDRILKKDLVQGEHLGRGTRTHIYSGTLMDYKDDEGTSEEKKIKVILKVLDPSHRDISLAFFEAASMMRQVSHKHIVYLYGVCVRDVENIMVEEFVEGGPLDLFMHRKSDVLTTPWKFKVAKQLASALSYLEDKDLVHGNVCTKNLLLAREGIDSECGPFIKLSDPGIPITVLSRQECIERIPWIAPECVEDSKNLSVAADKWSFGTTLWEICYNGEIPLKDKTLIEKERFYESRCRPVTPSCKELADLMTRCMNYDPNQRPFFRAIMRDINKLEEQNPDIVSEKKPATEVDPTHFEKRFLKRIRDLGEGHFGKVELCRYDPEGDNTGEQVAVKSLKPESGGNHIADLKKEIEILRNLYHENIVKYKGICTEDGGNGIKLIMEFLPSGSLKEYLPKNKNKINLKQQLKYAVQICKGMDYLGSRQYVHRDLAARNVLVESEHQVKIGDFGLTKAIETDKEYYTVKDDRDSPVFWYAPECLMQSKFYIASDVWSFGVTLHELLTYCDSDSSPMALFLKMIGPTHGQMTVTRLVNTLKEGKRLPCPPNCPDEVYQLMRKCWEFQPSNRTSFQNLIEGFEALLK
Chain of Human Tyk2 kinase domain (P29597 886-1187): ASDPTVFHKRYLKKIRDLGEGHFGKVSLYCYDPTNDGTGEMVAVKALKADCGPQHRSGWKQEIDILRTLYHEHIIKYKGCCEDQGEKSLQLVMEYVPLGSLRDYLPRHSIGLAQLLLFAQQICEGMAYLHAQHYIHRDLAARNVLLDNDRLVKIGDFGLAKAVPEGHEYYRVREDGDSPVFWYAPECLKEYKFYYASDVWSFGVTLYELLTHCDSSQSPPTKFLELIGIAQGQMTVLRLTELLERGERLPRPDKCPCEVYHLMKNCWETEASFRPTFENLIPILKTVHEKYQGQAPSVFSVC

| SMILES | IC50 [1] [nM] | IC50 [2] [nM] | IC50 [3] [nM] | IC50 [4] [nM] | IC50 [3, 5] [nM] |
| --- | --- | --- | --- | --- | --- |
| CCC(CC)n1cc(-c2nc(-c3cnn(CC4CCS(=O)(=O)CC4)c3)cn3nccc23)cn1 [Example 11, 4-((4-(4-(1-(pentan-3-yl)-1H-pyrazol-4-yl)pyrazolo[1,5-a]pyrazin-6-yl)-1H-pyrazol-1-yl)methyl)tetrahydro-2H-thiopyran 1,1-dioxide] | 1000 to 10000 | 10 to 100 | 1000 to 10000 | 10 to 100 | – |
| CCC(CC)n1cc(-c2nc(-c3cnn(C4CN(C(=O)CN)C4)c3)cn3nccc23)cn1 [Example 186, 2-amino-1-(3-(4-(4-(1-(pentan-3-yl)-1H-pyrazol-4-yl)pyrazolo[1,5-a]pyrazin-6-yl)-1H-pyrazol-1-yl)azetidin-1-yl)ethanone] | 1000 to 10000 | 10 to 100 | 1000 to 10000 | 10 to 100 | – |
| CCC(CC)n1cc(-c2nc(-c3cnn(CCN4CCOCC4)c3)cn3nccc23)cn1 [Example 3, 4-(2-(4-(4-(1-(pentan-3-yl)-1H-pyrazol-4-yl)pyrazolo[1,5-a]pyrazin-6-yl)-1H-pyrazol-1-yl)ethyl)morpholine] | 1000 to 10000 | 10 to 100 | 1000 to 10000 | 10 to 100 | – |
| CCC(CC)n1cc(-c2nc(-c3cnn(CCCO)c3)cn3nccc23)cn1 [Example 19, 3-(4-(4-(1-(pentan-3-yl)-1H-pyrazol-4-yl)pyrazolo[1,5-a]pyrazin-6-yl)-1H-pyrazol-1-yl)propan-1-ol] | 1000 to 10000 | 1000 to 10000 | 1000 to 10000 | 1000 to 10000 | – |
| CCC(CC)n1cc(-c2nc(-c3cnn([C@@H]4CCC[C@H]4O)c3)cn3nccc23)cn1 (single isomer, unassigned) [Example 153] | 1000 to 10000 | 10 to 100 | – | 10 to 100 | 100 to 1000 |
| CCC(CC)n1cc(-c2nc(-c3cnn([C@H]4C[C@H](CO)C4)c3)cn3nccc23)cn1 [Example 165, (trans-3-(4-(4-(1-(pentan-3-yl)-1H-pyrazol-4-yl)pyrazolo[1,5-a]pyrazin-6-yl)-1H-pyrazol-1-yl)cyclobutyl)methanol] | 1000 to 10000 | 10 to 100 | 100 to 1000 | 10 to 100 | – |
| CC[C@H](C1CC1)n1cc(-c2nc(-c3cnn(C[C@H](C)O)c3)cn3nccc23)cn1 [Example 218, (S)-1-(4-(4-(1-((R)-1-cyclopropylpropyl)-1H-pyrazol-4-yl)pyrazolo[1,5-a]pyrazin-6-yl)-1H-pyrazol-1-yl)propan-2-ol] | 1000 to 10000 | 10 to 100 | 100 to 1000 | 10 to 100 | – |
| CCC(CC)n1cc(-c2nc(-c3cnn(C4CN(C(=O)CN5CC(O)C5)C4)c3)cn3nccc23)cn1 [Example 180, 2-(3-hydroxyazetidin-1-yl)-1-(3-(4-(4-(1-(pentan-3-yl)-1H-pyrazol-4-yl)pyrazolo[1,5-a]pyrazin-6-yl)-1H-pyrazol-1-yl)azetidin-1-yl)ethanone] | 1000 to 10000 | 100 to 1000 | – | 100 to 1000 | 1000 to 10000 |
| CCC(CC)n1cc(-c2nc(-c3cnn(C[C@H](O)[C@H](C)O)c3)cn3nccc23)cn1 [Example 65, (2S,3S)-1-(4-(4-(1-(pentan-3-yl)-1H-pyrazol-4-yl)pyrazolo[1,5-a]pyrazin-6-yl)-1H-pyrazol-1-yl)butane-2,3-diol] | 1000 to 10000 | 10 to 100 | – | 10 to 100 | 100 to 1000 |
| OC[C@H](O)Cn1cc(-c2cn3nccc3c(-c3cnn(C(C4CC4)C4CC4)c3)n2)cn1 [Example 216, (R)-3-(4-(4-(1-(dicyclopropylmethyl)-1H-pyrazol-4-yl)pyrazolo[1,5-a]pyrazin-6-yl)-1H-pyrazol-1-yl)propane-1,2-diol] | 1000 to 10000 | 100 to 1000 | 1000 to 10000 | 100 to 1000 | – |
| CCC[C@H](C)n1cc(-c2nc(-c3cnn(C(CO)CO)c3)cn3nccc23)cn1 [Example 82, (S)-2-(4-(4-(1-(pentan-2-yl)-1H-pyrazol-4-yl)pyrazolo[1,5-a]pyrazin-6-yl)-1H-pyrazol-1-yl)propane-1,3-diol] | 1000 to 10000 | 100 to 1000 | 100 to 1000 | 10 to 100 | – |
| CCC(CC)n1cc(-c2nc(-c3cnn(CC(C)(O)CO)c3)cn3nccc23)cn1 (centres unmarked) [Example 60, 2-methyl-3-(4-(4-(1-(pentan-3-yl)-1H-pyrazol-4-yl)pyrazolo[1,5-a]pyrazin-6-yl)-1H-pyrazol-1-yl)propane-1,2-diol] | 1000 to 10000 | 10 to 100 | 1000 to 10000 | 10 to 100 | – |
| CCC[C@@H](C)n1cc(-c2nc(-c3cnn(C[C@H](O)CO)c3)cn3nccc23)cn1 [Example 74, (S)-3-(4-(4-(1-((R)-pentan-2-yl)-1H-pyrazol-4-yl)pyrazolo[1,5-a]pyrazin-6-yl)-1H-pyrazol-1-yl)propane-1,2-diol] | 1000 to 10000 | 10 to 100 | – | 100 to 1000 | 1000 to 10000 |
| CCC(CC)n1cc(-c2nc(-c3cnn([C@@H](C)CO)c3)cn3nccc23)cn1 [Example 125, (S)-2-(4-(4-(1-(pentan-3-yl)-1H-pyrazol-4-yl)pyrazolo[1,5-a]pyrazin-6-yl)-1H-pyrazol-1-yl)propan-1-ol] | 1000 to 10000 | 10 to 100 | – | 100 to 1000 | 1000 to 10000 |
| CCC[C@@H](C)n1cc(-c2nc(-c3cnn(C[C@@H](O)CO)c3)cn3nccc23)cn1 [Example 73, (R)-3-(4-(4-(1-((R)-pentan-2-yl)-1H-pyrazol-4-yl)pyrazolo[1,5-a]pyrazin-6-yl)-1H-pyrazol-1-yl)propane-1,2-diol] | 1000 to 10000 | 10 to 100 | – | 10 to 100 | 1000 to 10000 |
| CCC(CC)n1cc(-c2nc(-c3cnn(C[C@H]4COCCN4)c3)cn3nccc23)cn1 [Example 30, (S)-3-((4-(4-(1-(pentan-3-yl)-1H-pyrazol-4-yl)pyrazolo[1,5-a]pyrazin-6-yl)-1H-pyrazol-1-yl)methyl)morpholine] | 1000 to 10000 | 10 to 100 | 100 to 1000 | 10 to 100 | – |
| CCC(n1cc(-c2nc(-c3cnn(C[C@@H](O)CO)c3)cn3nccc23)cn1)C(F)(F)F (stereo partly drawn) [Example 193, (2R)-3-(4-(4-(1-(1,1,1-trifluorobutan-2-yl)-1H-pyrazol-4-yl)pyrazol[1,5-a]pyrazin-6-yl)-1H-pyrazol-1-yl)propane-1,2-diol] | 1000 to 10000 | 100 to 1000 | – | 100 to 1000 | 1000 to 10000 |
| CC1CCCCCC1n1cc(-c2nc(-c3cnn(C)c3)cn3nccc23)cn1 (centres unmarked) [Example 52, 6-(1-methyl-1H-pyrazol-4-yl)-4-(1-(2-methylcycloheptyl)-1H-pyrazol-4-yl)pyrazolo[1,5-a]pyrazine] | 1000 to 10000 | 10 to 100 | 100 to 1000 | 10 to 100 | – |
| CCC(CC)n1cc(-c2nc(-c3cnn(CC4(O)CCOCC4)c3)cn3nccc23)cn1 [Example 116, 4-((4-(4-(1-(pentan-3-yl)-1H-pyrazol-4-yl)pyrazolo[1,5-a]pyrazin-6-yl)-1H-pyrazol-1-yl)methyl)tetrahydro-2H-pyran-4-ol] | 1000 to 10000 | 10 to 100 | – | 10 to 100 | 1000 to 10000 |
| Cn1cc(-c2cn3nccc3c(-c3cnn(C4CCCCCC4)c3)n2)cn1 [Example 2, 4-(1-cycloheptyl-1H-pyrazol-4-yl)-6-(1-methyl-1H-pyrazol-4-yl)pyrazolo[1,5-a]pyrazine] | 1000 to 10000 | 100 to 1000 | 1000 to 10000 | 100 to 1000 | – |

Source: patent US10189845B2, “4,6-substituted-pyrazolo[1,5-a]pyrazines as janus kinase inhibitors” (ARRAY BIOPHARMA INC., priority 2014, dated 2019)
